Measured values reported in paper PMC4906375, “Contribution of Amphipathicity and Hydrophobicity to the Antimicrobial Activity and Cytotoxicity of β-Hairpin Peptides” (ACS Infectious Diseases, 2016).
≈ marks a conversion by molar mass, not a printed value.

What was measured:
[1] = system: C. albicans ATCC 90028; experiment: microbe, parasite or virus in culture; assay type: cell-based, Candida albicans; conditions: Candida albicans, ATCC90028; C. albicans ATCC 90028; n = 4; read-out: MIC
Procedure: (§1) Both antibacterial and antifungal MIC assays were performed by a broth microdilution plate based method as per CLSI guidelines for antimicrobial susceptibility testing.[53],[54] […] Full assay details are included in the Supporting Information with a full list of strains tested in Table S1.
(§2) Antibacterial assay (Minimum Inhibitory Concentration [MIC]).
(§3) MIC assay was performed by a broth microdilution plate based method as per CLSI guidelines for antimicrobial susceptibility testing of aerobic bacteria.1 Compounds were prepared at 1.28 mg/mL solution in water. The tested strains, Table S1, were cultured in Luria broth (LB) (In Vitro Technologies, USB75852), at 37 °C overnight. A sample of culture was then diluted 40Pfold in fresh Muller Hinton broth (MHB) (Bacto laboratories, 211443) and incubated at 37 °C for 1.5P2 h. The compounds were serially diluted twoPfold across the wells, with compound concentrations ranging from 0.015 µg/mL to 512 µg/mL, plated in duplicate. The resultant midPlog phase cultures were diluted to the final concentration of 1×10^6 CFU/mL, then 50 µL was added to each well of the compoundP containing 96Pwell plates (Corning 3641, NonPbinding Surface [NBS]), giving a final compound concentration range of 0.008 µg/mL to 256 µg/mL and 5x10^5 CFU/mL. All the plates were covered and incubated at 37 °C for 18 h. MICs were determined visually, being defined as the lowest concentration showing no visible growth. Resazurin was added at 0.001% final concentration to each well and incubated for 2 h before MICs were rePread for confirmation using the colour change from blue to pink to indicate wells containing viable cells. The resazurin assay was added in some wells where some form of precipitate was present in otherwise clear wells, making it difficult to ascertain which wells had visible […]
(§4) Antifungal assay (Minimum Inhibitory Concentration [MIC]). MIC assay was performed by a broth microdilution plate based method as per CLSI guidelines for antimicrobial susceptibility testing.2 Fungi strains, Table S1, were cultured for 3 days on Yeast ExtractPPeptone Dextrose (YPD) (SigmaPAldrich, Y1500) agar at 30 °C. A yeast suspension of 1x10^6 to 5x10^6 CFU/mL was prepared from five colonies. These stock suspensions were diluted with Yeast Nitrogen Base (YNB) (Becton Dickinson, 233520) broth to a final concentration of 2.5 ×10^3 CFU/mL. All samples, compounds and standards were plated in 96Pwell plates (Corning 3641, NonPbinding Surface [NBS]), by adding 10 µL of 1.28 mg/mL stock solution to each well and 90 µL of media. Then, the samples were serial diluted (1:2) in 12 concentrations across the plate. The standard antifungal ranged from 256 […]
(§5) µg/mL to 0.12 µg/mL and compounds from 128 µg/mL to 0.06 µg/mL with final volumes of 50 µL per well, plated in duplicate. Then, 50 µL of the fungi suspension that was previously prepared in YNB broth to the final concentration of 2.5×10^3 CFU/mL, was added to each well of the compoundPcontaining plates, giving a final standard compound concentration range of 128 µg/mL to 0.06 µg/mL and tested compound from 64 µg/mL to 0.03 µg/mL. Plates were covered and incubated at 35 °C for 24 h. Candida albicans MICs were determined by measuring the absorbance at OD530. For Cryptococcus neoformans 10 µL of 0.06 % resazurin were added to the 24 h incubated plates. Then, these plates were incubated for another 3 h.
(§6) Cryptococcus neoformans MICs were determined by measuring the absorbance at OD570P600. […]

[2] = system: C. neoformans ATCC 208821; experiment: microbe, parasite or virus in culture; assay type: cell-based, Cryptococcus neoformans; conditions: Cryptococcus neoformans, ATCC208821; C. neoformans ATCC 208821; n = 4; read-out: MIC
Procedure: as §1, §2, §3, §4, §5, §6

[3] = system: B. subtilis ATCC 6051; experiment: microbe, parasite or virus in culture; assay type: cell-based, Bacillus subtilis; conditions: Bacillus subtilis, ATCC6051
Procedure: as §1, §2, §3
(§7) Antifungal assay (Minimum Inhibitory Concentration [MIC]). MIC assay was performed by a broth microdilution plate based method as per CLSI guidelines for antimicrobial susceptibility testing.2 Fungi strains, Table S1, were cultured for 3 days on Yeast ExtractPPeptone Dextrose (YPD) (SigmaPAldrich, Y1500) agar at 30 °C. A yeast suspension of 1x10^6 to 5x10^6 CFU/mL was prepared from five colonies. These stock suspensions were diluted with Yeast Nitrogen Base (YNB) (Becton Dickinson, 233520) broth to a final concentration of 2.5 ×10^3 CFU/mL. All samples, compounds and standards were plated in 96Pwell plates (Corning 3641, NonPbinding Surface [NBS]), by adding 10 µL of 1.28 mg/mL stock solution to each well and 90 µL of media. Then, the samples were serial diluted (1:2) in 12 concentrations across the plate. The standard antifungal ranged from 256

[4] = system: S. aureus ATCC 43300 (MRSA); experiment: microbe, parasite or virus in culture; assay type: cell-based, Staphylococcus aureus; conditions: Staphylococcus aureus
Procedure: as §1, §2, §3, §7

[5] = system: A. baumannii ATCC 19606; assay type: cell-based, Acinetobacter baumannii; conditions: A. baumannii ATCC 19606; n = 4
Procedure: as §1, §2, §3, §7

[6] = system: K. pneumoniae BAA 2146 (NDM-1 pos); assay type: cell-based, Klebsiella pneumoniae; conditions: n = 4
Procedure: as §1, §2, §3, §7

[7] = system: K. pneumoniae ATCC 13883; assay type: cell-based, Klebsiella pneumoniae; conditions: K. pneumoniae ATCC 13883; n = 4
Procedure: as §1, §2, §3, §7

[8] = system: K. pneumoniae ATCC 700603 (MDR); assay type: cell-based, Klebsiella pneumoniae; conditions: n = 4
Procedure: as §1, §2, §3, §7

[9] = system: E. coli MB 4902 (ΔlpxC); assay type: cell-based, Escherichia coli; conditions: n = 4
Procedure: as §1, §2, §3, §7

[10] = system: E. coli ATCC 25922 (control strain); assay type: cell-based, Escherichia coli; conditions: E. coli ATCC 25922 (control strain); n = 4
Procedure: as §1, §2, §3, §7

[11] = system: E. coli ATCC 700926 (K12); assay type: cell-based, Escherichia coli; conditions: E. coli ATCC 700926 (K12); n = 4
Procedure: as §1, §2, §3, §7

[12] = system: P. aeruginosa ATCC 27853; assay type: cell-based, Pseudomonas aeruginosa; conditions: P. aeruginosa ATCC 27853; n = 4
Procedure: as §1, §2, §3, §7

Question: What does the source list for C[C@@H]1[C@H](O)[C@@H](C)/C=C/C=C/C=C/C=C/C=C/C=C/C=C/[C@H](O[C@@H]2O[C@H](C)[C@@H](O)[C@H](N)[C@@H]2O)C[C@@H]2O[C@](O)(C[C@@H](O)C[C@@H](O)[C@H](O)CC[C@@H](O)C[C@@H](O)CC(=O)O[C@H]1C)C[C@H](O)[C@H]2C(=O)O [amphotericin B, reference compound]?
Answer: MIC [1]: 0.06 mg/L (≈ 0.0649 µM); MIC [2]: 0.015 mg/L (≈ 0.0162 µM)

Question: With CN[C@H](CC(C)C)C(=O)N[C@H]1C(=O)N[C@@H](CC(N)=O)C(=O)N[C@H]2C(=O)N[C@H]3C(=O)N[C@H](C(=O)N[C@H](C(=O)O)c4cc(O)cc(O)c4-c4cc3ccc4O)[C@H](O)c3ccc(c(Cl)c3)Oc3cc2cc(c3O[C@@H]2O[C@H](CO)[C@@H](O)[C@H](O)[C@H]2O[C@H]2C[C@](C)(N)[C@H](O)[C@H](C)O2)Oc2ccc(cc2Cl)[C@H]1O [vancomycin, reference compound] as the molecule, how does the MIC [3] read?
Answer: The MIC was 0.25 mg/L (≈ 0.173 µM).

Question: What about the MIC [4] of the same molecule?
Answer: Its MIC is 1 mg/L (≈ 0.69 µM).

Question: How did the MIC [5] turn out when colistin [reference compound] was run?
Answer: The MIC was 0.03 mg/L.

Question: And the MIC [6]?
Answer: Its MIC is 0.03 mg/L.

Question: And the MIC [7]?
Answer: The MIC was 0.5 mg/L.

Question: What about the MIC [8] of the same molecule?
Answer: Its MIC is 0.125 mg/L.

Question: And the MIC [9]?
Answer: The MIC was 0.009 mg/L.

Question: And the MIC [10]?
Answer: Its MIC is 0.03 mg/L.

Question: What about the MIC [11] of the same molecule?
Answer: The MIC was 0.03 mg/L.

Question: What about the MIC [12] of the same molecule?
Answer: Its MIC is 0.25 mg/L.
